The values below come from patent US7498353B2, “Heterocyclic anti-viral compounds comprising metabolizable moieties and their uses” (priority 2005, dated 2009).

Read-outs that look alike come from different tables or passages of the source.

Series [1] concerns HCV replicon in 5-2 Luc replicon-comprising cells. Nature of the series: HCV replicon assay, luciferase readout (HEPC_REPLICON-LUC). In kind it is cell-based. To be noted: Hepatitis C virus, read-out: HEPC_REPLICON-LUC Result Value (IC50). The source says:
In one embodiment, the inhibitory activity of the metabolically active agent of the prodrug can be confirmed in a replicon assay that assesses the ability of a test compound to block or inhibit HCV replication in replicon cells. One example of a suitable replicon assay is the liver cell-line Huh 7-based replicon assay described in Lohmann et al., 1999, Science 285:110-113. A specific example of this replicon assay which utilizes luciferase translation is provided in the Examples Section. In one embodiment of this assay, the amount of test prodrug that yields a 50% reduction in translation as compared to a control cell (IC50) may be determined.
The inhibitory activity of certain prodrugs of the invention, which may inhibit HCV translation or replication prior to metablism and/or are metabolized into active agents, was confirmed using an HCV replicon assay. The HCV replicon can include such features as the HCV 5′ untranslated region including the HCV IRES, the HCV 3′ untranslated region, selected HCV genes encoding HCV polypeptides, selectable markers, and a reporter gene such as luciferase, GFP, etc. In the assay, actively dividing 5-2 Luc replicon-comprising cells (obtained from Ralf Bartenschlager; see Lohmann et al., 1999, Science 285:110-113) were seeded at a density of between about 5,000 and 7,500 cells/well onto 96 well plates (about 90 μl of cells per well) and incubated at 37° C. and 5% CO2 for 24 hours. Then, the test prodrug (in a volume of about 10 μl) was added to the wells at various concentrations and the cells were incubated for an additional 24-48 hours before luciferase assay. The media was aspirated from each well and Bright-Glo (Promega, Madison, Wis.) luciferase assay reagents were added to each well according to the manufacturer's instructions. Briefly, the Bright-Glo reagent was diluted 1:1 with PBS and 100 μl of diluted reagent was added to each well. After 5 min of incubation at room temperature, luciferin emission was quantified with a luminometer. In this assay, the amount of test prodrug that yielded a 50% reduction in luciferase emission (IC50) was determined. This IC50 value may represent the antiviral activity of the prodrug itself, the activity of prodrug transformed into its active metabolized form, or a combination of the two.

Series [2] is described as follows: Pharmacokinetic studies in portal/jugular vein cannulated rats after oral administration. In kind it is in vivo, male Spraque-Dawley rats. To be noted: male, Sprague-Dawley, rat, 5 mg/kg oral dose of prodrug. The procedure:
Pharamcokinetic studies were conducted in rats containing surgically implanted cannula in the portal and jugular veins. Blood samples were taken simultaneously from both cannula at various times after oral administration of the compounds. In the portal vein, the prodrugs are detected and, in some cases, the active compound, A-B—C—NHCOCHX2, has also been detected. The presence of active compound in the portal vein samples has been attributed to metabolism of the prodrug in transit through the gut wall. […] In the jugular samples, many, but not all, of the prodrugs have been detected in systemic circulation, depending on the hepatic extraction ratio of the prodrug.
Compounds were dissolved in a mixture of TPGS:PEG:PG (35%:60%:5%) and diluted with saline for oral administration. Typically, 6.5 mg of compound was dissolved in 1 ml of the organic mixture and added to 5.5 ml of saline. Animals were dosed with 5 ml/kg of this mixture to give a typical dose of 5 mg/kg. All animal studies were conducted in male Spraque-Dawley rats and the animals were fasted overnight prior to dose administration. Surgeries (to implant blood sampling cannula) were conducted at least two days prior to the study. Blood samples (100 μl) were collected using sodium heparin as anticoagulant and added to 300 μl of a mixture of acetate buffer (100 mM, pH=6.5):acetonitrile:ethanol:DMSO (2:1:1:2 v/v). Samples were centrifuged and the supernatant was analyzed by LC/MS/MS using the procedures outlined above. Standards were prepared similarly using fresh rat blood from naive animals.
No. 66 and Cpd. No. 64 (Table 3). […] Because the portal blood flows directly to the liver, the intact active parent compound may exert an anti-viral effect in the liver.

For series [3], the system named is HCV NS5A protein in 9-13 replicon cells. Nature of the series: Quantitative Western blot replicon assay (HEPC_REPLICON-ICWESTERN). In kind it is cell-based, Hepatitis C virus (HCV). To be noted: Hepatitis C virus, read-out: HEPC_REPLICON-ICWESTERN Result Value (IC50). On the technique in general: Immunoblotting shows a protein as a band on a membrane.

Consider `CCOP(=O)(CCN(C(=O)C(Cl)Cl)c1cccc(-c2cc(-c3c(Cl)cccc3Cl)no2)c1)OCC` [Cpd. No. 1, Diethyl 2-(2,2-Dichloro-N-(3-(3-(2,6-dichlorophenyl)isoxazol-5-yl)phenyl)acetamido)ethylphosphonate], for which the IC50 in series [1] was greater than 20000 nM; in series [3] it was 1000 to 20000 nM. Also, the AUC in series [2] (in vivo) is 176 ng·h/mL.

`COCN(C(=O)C(Cl)Cl)c1cccc(-c2cc(-c3c(Cl)cccc3Cl)no2)c1` [Cpd. No. 6, 2,2-Dichloro-N-(3-(3-(2,6-dichlorophenyl)isoxazol-5-yl)phenyl)-N-(methoxymethyl)acetamide]: the IC50 was less than 1000 nM in series [1] (5-2 Luc replicon cells, 50% reduction in luciferase emission) and less than 1000 nM in series [3] (9-13 replicon cells, 50% reduction in NS5A protein). Also, the area under the curve (AUC) in series [2] (portal vein blood) stood at 98.3 ng·h/mL.

As a reminder, the IC50 is the point on the concentration scale where inhibition reaches its midpoint. As a reminder, the AUC is concentration integrated over time.
